In US7256180B2 (priority 2000, dated 2007):
Like-named read-outs stand apart in the source and are kept apart here. {C11P} = undecylphosphate group; {Acr} = acridine group

Tests used:
HSV-1 = assay type: cell-based, Herpes Simplex Virus 1; details: BHK cells, oligonucleotide 3.0 μM
HSV-1 (strain CI) = assay type: in vivo, mice
HSV-1 virus (strain L2) = assay type: cell-based, Herpes Simplex Virus 1; details: Vero cells, 24 hours

Free Anti-HSV: CGTTCCTCCTGU, 5′ undecylphosphate and 3′ acridine modified (5' {C11P}, 3' {Acr}, sugars by position and backbone not given here)
HSV-1 Infectious Titre (CPE50/ml) (n = 7) (HSV-1): 50 (±14) × 10^2 CPE50/ml
Animals Survived/No. of Animals in group, Exp. 1 (HSV-1 (strain CI); mouse, in vivo, iv): 1/10
Animals Survived/No. of Animals in group, Exp. 2 (HSV-1 (strain CI); mouse, in vivo, iv): 1/10
Animals Survived/No. of Animals in group, Exp. 3 (HSV-1 (strain CI); mouse, in vivo, iv): 0/10
% Survival (HSV-1 (strain CI); over Exp. 1-3): 7.0%
HSV-1 Infectious Titre (CPE50/ml) (n = 7) (HSV-1 virus (strain L2); oligo conc. 0.2 μM): 0.9 (±0.4) × 10^5 CPE50/ml
HSV-1 Infectious Titre (CPE50/ml) (n = 7) (HSV-1 virus (strain L2); oligo conc. 1.0 μM): 2.3 (±0.7) × 10^3 CPE50/ml
HSV-1 Infectious Titre (CPE50/ml) (n = 7) (HSV-1 virus (strain L2); oligo conc. 5.0 μM): 1.6 (±0.4) × 10^2 CPE50/ml
